Experimental data from patent US12245623B2, “Olive oil enriched with oleanolic acid, process for its preparation and use thereof” (CONSEJO SUPERIOR DE INVESTIGACIONES CIENTÍFICAS (CSIC), priority 2018, dated 2025).

Assays:
[1] = Fasting plasma OA levels in the PREDIABOLE Study (GC-MS); assay type: in vivo, human; settings: both study groups
Source text: At baseline and every six months afterwards, fasting blood samples were taken and analyzed for the serum glucose, insulin and HbA1c levels, as well as the lipid profile (triglycerides, total cholesterol, HDL-c and LDL-c). At each annual visit since the recruitment, participants were submitted to an OGTT. All these analytical determinations were made in the Laboratory of Analysis and Clinical Biochemistry of the ‘Virgen del Rocio’ University Hospital of Seville. In addition, aliquots of all the blood samples were sent to Instituto de la Grasa-CSIC to determine the plasma OA content. Laboratory technicians of both institutions were also blinded to the intervention groups.
Adherence to the dietary intervention has been assessed through two indirect methods: the self-reported compliance Haynes-Sackett (Rodriguez-Chamorro M A et al. Review of therapeutic compliance measurement tests used in clinical practice. Atencion Primaria 2008, 40, 413-417) test and the delivering of the empty bottles presumably consumed. In addition, the OA plasma levels have been measured, as objective biomarker of compliance, in a random sample of the PREDIABOLE biobank (25 aliquots per study group, corresponding to 0, 12, 18 and 30 months of follow-up). […]

[2] = Adverse effects in the PREDIABOLE Study (quarterly questioning and retrospective review of electronic medical records); assay type: in vivo, human; settings: indicated daily dose (55 mL oil, 36 mg OA/day), up to 30 months, humans
Source text: In each quarterly visit during the development of the trial, participants were questioned about the appearance of gastrointestinal disarrays or other kind of discomfort. On the other hand, a family physician not belonging to the study staff, and therefore being unaware of the allocation of the participants to the study groups, carried out a retrospective study using the electronic medical records.
They explored for each participant the period comprised between the inclusion in the trial up to two years after its completion, and focused on analytical values of serum creatinine levels (marker of renal function) and alanine and aspartate aminotransferase enzymes (as markers of hepatic alteration). Normal creatinine levels are established in 61.9 to 114.9 μM for men and 53 to 97.2 μM for women. A serum creatinine level 1.5-folds higher than the normal value (≈150 μM) was adopted as criteria of kidney function alteration.
Since micro and macrovascular disorders are frequently associated to pathological complications of insulin resistance and diabetes, the electronic medical records were also explored for cerebral (transient ischemic stroke and ictus), cardiac (ischemic heart disease, chronic ischemia and effort angina) and peripheral (peripheral arterial disease) vascular diseases. In addition, any other significant adverse event suffered by participants were also took in consideration. […]

[3] = previous study, Rada et al. 2015; cited from earlier work
[4] = cited from earlier work

CC1(C)CC[C@]2(C(=O)O)CC[C@]3(C)C(=CC[C@@H]4[C@@]5(C)CC[C@H](O)C(C)(C)[C@@H]5CC[C@]43C)[C@@H]2C1 [OA, 3b-hydroxy-olean-12-en-28-oic acid]
fasting OA plasma concentration, average value ([1]; at the onset of the study): ca. 160 ng/mL | concentration at 30 months ([1]; human, in vivo, after 30 months of follow-up): ~300 ng/mL | safety of long-term administration [2]: safe for humans | mean residence time of OA in human blood after its ingestion [3]: 8.9 h | solubility in aqueous media [4]: practically insoluble | solubility in lipophilic matrices [4]: partially soluble
